Earlier results in patent US11141417B2 (priority 2013, dated 2021).
“Also recorded” adds a separate entry of the source.

Conditions: classification in words

## C[C@@H](c1ncncc1F)[C@](O)(Cn1cncn1)c1ccc(F)cc1F [Voriconazole, (2R,3S)-2-(2,4-difluorophenyl)-3-(5-fluoro-4-pyrimidinyl)-1-(1H-1,2,4triazol-1-yl)-2-butanol]
  solubility in water: only sparingly soluble in water; also recorded: very slightly soluble in water
